Results as given in the NIST ThermoML archive (doi:10.1016/j.tca.2014.05.034).
± gives the expanded uncertainty stated by the source.

What was measured:
[1] = 100 kPa, Liquid; for kinematic viscosity: Capillary tube (Ostwald / Ubbelohde) method; for mass density: Pycnometric method
[2] = xn = mol fraction of the nth substance listed; conditions: 100 kPa, Liquid, x2 = 0; for kinematic viscosity: Capillary tube (Ostwald / Ubbelohde) method; for mass density: Pycnometric method

Structure (SMILES) | kinematic viscosity ([1]; 298.15 K) [m2/s] | mass density ([1]; 298.15 K) [kg/m3] | kinematic viscosity ([1]; 303.15 K) [m2/s] | mass density ([1]; 303.15 K) [kg/m3] | kinematic viscosity ([1]; 308.15 K) [m2/s] | mass density ([1]; 308.15 K) [kg/m3] | kinematic viscosity ([1]; 313.15 K) [m2/s] | mass density ([1]; 313.15 K) [kg/m3] | kinematic viscosity ([1]; 318.15 K) [m2/s] | mass density ([1]; 318.15 K) [kg/m3] | kinematic viscosity ([2]; 298.15 K) [m2/s] | mass density ([2]; 298.15 K) [kg/m3] | kinematic viscosity ([2]; 303.15 K) [m2/s] | mass density ([2]; 303.15 K) [kg/m3] | kinematic viscosity ([2]; 308.15 K) [m2/s] | mass density ([2]; 308.15 K) [kg/m3] | kinematic viscosity ([2]; 313.15 K) [m2/s] | mass density ([2]; 313.15 K) [kg/m3] | kinematic viscosity ([2]; 318.15 K) [m2/s] | mass density ([2]; 318.15 K) [kg/m3]
OCCOCCO [diethylene glycol] | 2.47e-05 ± 2e-07 | 1112.8 ± 0.7 | 1.96e-05 ± 2e-07 | 1109.2 ± 0.7 | 1.53e-05 ± 1e-07 | 1105.6 ± 0.7 | 1.29e-05 ± 1e-07 | 1102.3 ± 0.7 | 1.1e-05 ± 1e-07 | 1099.2 ± 0.7 |  |  |  |  |  |  |  |  |  | 
OCCOCCO [diethylene glycol] + NCCN |  |  |  |  |  |  |  |  |  |  | 2.47e-05 ± 2e-07 | 1112.8 ± 0.7 | 1.96e-05 ± 2e-07 | 1109.2 ± 0.7 | 1.53e-05 ± 1e-07 | 1105.6 ± 0.7 | 1.29e-05 ± 1e-07 | 1102.3 ± 0.7 | 1.1e-05 ± 1e-07 | 1099.2 ± 0.7
NCCN [ethane-1,2-diamine] | 1.56e-06 ± 1e-08 | 893.3 ± 0.7 | 1.39e-06 ± 1e-08 | 888.8 ± 0.7 | 1.27e-06 ± 1e-08 | 884.9 ± 0.7 | 1.17e-06 ± 1e-08 | 880 ± 0.7 | 1.08e-06 ± 1e-08 | 875.2 ± 0.7 |  |  |  |  |  |  |  |  |  | 
